Data from patent US9688707B2, “Bicyclic morpholino compounds and oligomeric compounds prepared therefrom” (Ionis Pharmaceuticals, Inc., priority 2014, dated 2017).

Test system: complementary RNA with the sequence 5′-AGCAAAAAACGC-3′ (SEQ ID NO: 6)
Assay: Thermal stability (Tm) assay
Type: binding
Settings: for ΔTm: calculated relative to a DNA standard, same duplex and buffer as Tm; for Tm: duplex with complementary RNA strand, buffer 100 mM NaCl, 10 mM phosphate, 0.1 mM EDTA (pH 7), heating 0.5° C./min from 15° C. to 85° C.
Protocol: A series of modified morpholino oligomeric compounds were evaluated in a thermal stability (Tm) assay. A Cary 100 Bio spectrophotometer with the Cary Win UV Thermal program was used to measure absorbance vs. temperature. For the Tm experiments, oligomeric compounds were prepared at a concentration of 8 μM in a buffer of 100 mM NaCl, 10 mM phosphate and 0.1 mM EDTA (pH 7). The concentration of the oligonucleotides was determined at 85° C. The concentration of each oligomeric compound was […] after mixing of equal volumes of test oligomeric compound and complimentary RNA strand. Oligomeric compounds were hybridized with the complimentary RNA strand by heating the duplex to 90° C. for 5 minutes followed by cooling to room temperature. Using the spectrophotometer, Tm measurements were taken by heating the duplex solution at a rate of 0.5° C./min in cuvette starting @15° C. and heating to 85° C. Tm values were determined using Vant Hoff calculations (A260 vs temperature curve) using non self-complementary sequences where the minimum absorbance which relates to the duplex and the maximum absorbance which relates to the non-duplex single strand are manually integrated into the program. The oligomeric compounds were hybridized to complementary RNA with the sequence 5′-AGCAAAAAACGC-3′ (SEQ ID NO: 6). ΔTm's are calculated relative to a DNA standard.

Question: How did the ΔTm turn out when “05/592979: GCGTTqTTqTTqGCT, q = bicyclic morpholino, diamidate linkages, 3′-cap NH (GCGTT_{q}TT_{q}TT_{q}GCT; morpholino oligomer, diamidate linkages, bicyclic morpholino at marked places, 3'-NH cap, as printed in the source, key not given here)” was run?
Answer: 3 °C

Question: What about the Tm of the same substance?
Answer: 48.6 °C

Question: Which ΔTm does the source give for “05/585595: GCGTTmRTTmRTTmRGCT, diamidate linkages, morpholino, 3′-cap NH (GCGTT_{mR}TT_{mR}TT_{mR}GCT; morpholino oligomer, diamidate linkages, modified morpholino nucleosides at marked places, 3'-NH cap, as printed in the source, key not given here)” here?
Answer: 5.3 °C

Question: And the Tm?
Answer: 50.9 °C

Question: Which ΔTm does the source give for “05/592592: GCGTTmRTTmRTTmRGCT, diamidate linkages, morpholino, 3′-cap NTr (trityl) (GCGTT_{mR}TT_{mR}TT_{mR}GCT; modified morpholino nucleosides, diamidate linkages, 3'-trityl cap, as printed in the source, key not given here)” here?
Answer: −0.8

Question: What about the Tm of the same substance?
Answer: 44.8 °C

Question: For “05/standard: DNA standard GCGTTTTTTGCT, PO linkages, unmodified DNA, 3′-cap OH (unmodified DNA) [reference compound]”, which Tm is on record?
Answer: 45.6 °C

Question: “05/592978: GCGTTqTTqTTqGCT, q = bicyclic morpholino, diamidate linkages, 3′-cap NTr (trityl) (GCGTT_{q}TT_{q}TT_{q}GCT; bicyclic morpholino, diamidate linkages, 3'-trityl cap, as printed in the source, key not given here)” was tested. Which ΔTm did it give?
Answer: −2.2

Question: What about the Tm of the same substance?
Answer: 43.4 °C

Question: For “05/592594: GCGTTmSTTmSTTmSGCT, diamidate linkages, morpholino, 3′-cap NTr (trityl) (GCGTT_{mS}TT_{mS}TT_{mS}GCT; morpholino oligomer, diamidate linkages, modified morpholino nucleosides at marked places, 3'-trityl cap, as printed in the source, key not given here)”, which ΔTm is on record?
Answer: 5.1 °C

Question: What about the Tm of the same substance?
Answer: 50.7 °C

Question: What does the source list for “05/592595: GCGTTmSTTmSTTmSGCT, diamidate linkages, morpholino, 3′-cap NH (GCGTT_{mS}TT_{mS}TT_{mS}GCT; modified morpholino nucleosides, diamidate linkages, 3'-NH cap, as printed in the source, key not given here)”?
Answer: ΔTm: 10 °C; Tm: 55.6 °C
